Measurements from patent US11590139B2, “Substituted aminopurine compounds, compositions thereof, and methods of treatment therewith” (Signal Pharmaceuticals, LLC, priority 2014, dated 2023).

These molecules were tested on Lox-IMVI melanoma cell line (assay: Lox-IMVI anti-proliferative assay (growth inhibition, Cell Titer-Glo)). Settings: Homo sapiens; Lox-IMVI anti-proliferative assay, IC50 activity level; read-out: Activity.
Format: cell-based, human
Method in brief: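 Viability read by ATP luminescence (Cell Titer-Glo) at t0 and after 72 h at 37 °C, 5% CO2, with normalisation to DMSO-treated cells. Compound tested at 0.5 nM–10 μM in 3-fold, 10-point series (0.2% DMSO final) on Lox-IMVI in RPMI+10% FBS; IC50 by 4-parameter sigmoidal fit.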

First: C[C@@H](CO)Nc1ncc2nc(Nc3c(Cl)cc(C(F)(F)F)cc3Cl)n([C@H]3CC[C@@](C)(C(N)=O)CC3)c2n1 [Example 554, (1R,4s)-4-(8-(2,6-dichloro-4-(trifluoromethyl)phenylamino)-2-((S)-1-hydroxypropan-2-ylamino)-9H-purin-9-yl)-1-methylcyclohexanecarboxamide]
Second: C[C@]1(C(N)=O)CC[C@@H](n2c(Nc3c(Cl)cc(C(F)(F)F)cc3Cl)nc3cnc(NC4CCCC4)nc32)CC1 [Example 562, (1s,4s)-4-(2-(cyclopentylamino)-8-(2,6-dichloro-4-(trifluoromethyl)phenylamino)-9H-purin-9-yl)-1-methylcyclohexanecarboxamide]
The IC50 of the first is lower: 500 to 1000 nM for the first, greater than 1000 nM for the second.

Compared with N#Cc1cc(Cl)c(Nc2nc3cnc(NC4CCCOCC4)nc3n2[C@H]2CC[C@@H](C(N)=O)CC2)c(Cl)c1 (stereo partly shown) [Example 555, (1s,4s)-4-(8-(2,6-dichloro-4-cyanophenylamino)-2-(oxepan-4-ylamino)-9H-purin-9-yl)cyclohexanecarboxamide], N#Cc1cc(Cl)c(Nc2nc3cnc(NC4CC5(COC5)C4)nc3n2[C@H]2CC[C@@H](C(N)=O)CC2)c(Cl)c1 [Example 571, (1s,4s)-4-(2-(2-oxaspiro[3.3]heptan-6-ylamino)-8-(2,6-dichloro-4-cyanophenylamino)-9H-purin-9-yl)cyclohexanecarboxamide] is higher in IC50: less than 250 nM for the first, 250 to 500 nM for the second. The first is the more potent here.

C[C@]1(C(N)=O)CC[C@@H](n2c(Nc3c(F)cc(F)cc3F)nc3cnc(NC4CCCC4)nc32)CC1 [Example 556, (1s,4s)-4-(2-(cyclopentylamino)-8-(2,4,6-trifluorophenylamino)-9H-purin-9-yl)-1-methylcyclohexanecarboxamide] and C[C@]1(C(N)=O)CC[C@@H](n2c(Nc3c(F)cc(F)cc3Cl)nc3cnc(NC4CCCC4)nc32)CC1 [Example 558, (1s,4s)-4-(8-(2-chloro-4,6-difluorophenylamino)-2-(cyclopentylamino)-9H-purin-9-yl)-1-methylcyclohexanecarboxamide] cannot be ordered by IC50: less than 250 nM for the first, less than 250 nM for the second.

First: C[C@]1(C(N)=O)CC[C@@H](n2c(Nc3c(F)cc(Cl)cc3Cl)nc3cnc(NC4CCCC4)nc32)CC1 [Example 557, (1s,4s)-4-(2-(cyclopentylamino)-8-(2,4-dichloro-6-fluorophenylamino)-9H-purin-9-yl)-1-methylcyclohexanecarboxamide]
Second: C[C@]1(C(N)=O)CC[C@@H](n2c(Nc3c(F)cc(Cl)cc3F)nc3cnc(NC4CCCC4)nc32)CC1 [Example 559, (1s,4s)-4-(8-(4-chloro-2,6-difluorophenylamino)-2-(cyclopentylamino)-9H-purin-9-yl)-1-methylcyclohexanecarboxamide]
The IC50 of the first is lower: less than 250 nM for the first, 250 to 500 nM for the second.

C[C@]1(C(N)=O)CC[C@@H](n2c(Nc3c(Cl)cc(F)cc3Cl)nc3cnc(NC4CCCC4)nc32)CC1 [Example 560, (1s,4s)-4-(2-(cyclopentylamino)-8-(2,6-dichloro-4-fluorophenylamino)-9H-purin-9-yl)-1-methylcyclohexanecarboxamide] and C[C@]1(C(N)=O)CC[C@@H](n2c(Nc3c(Cl)cc(Cl)cc3Cl)nc3cnc(NC4CCCC4)nc32)CC1 [Example 574, (1s,4s)-4-(2-(cyclopentylamino)-8-(2,4,6-trichlorophenylamino)-9H-purin-9-yl)-1-methylcyclohexanecarboxamide] fall in the same range of IC50: 250 to 500 nM for the first, 250 to 500 nM for the second.

C[C@]1(C(N)=O)CC[C@@H](n2c(Nc3c(Cl)cc(C#N)cc3Cl)nc3cnc(NC4CCCC4)nc32)CC1 [Example 561, (1s,4s)-4-(2-(cyclopentylamino)-8-(2,6-dichloro-4-cyanophenylamino)-9H-purin-9-yl)-1-methylcyclohexanecarboxamide] and C[C@]1(C(N)=O)CC[C@@H](n2c(Nc3c(F)cc(C#N)cc3Cl)nc3cnc(NC4CCCC4)nc32)CC1 [Example 575, (1s,4s)-4-(8-(2-chloro-4-cyano-6-fluorophenylamino)-2-(cyclopentylamino)-9H-purin-9-yl)-1-methylcyclohexanecarboxamide] cannot be ordered by IC50: less than 250 nM for the first, less than 250 nM for the second.

First: C[C@]1(C(N)=O)CC[C@@H](n2c(Nc3c(F)cc(F)cc3F)nc3cnc(N[C@@H]4CCC[C@H](O)C4)nc32)CC1 [Example 563, (1S,4s)-4-(2-((1R,3S)-3-hydroxycyclohexylamino)-8-(2,4,6-trifluorophenylamino)-9H-purin-9-yl)-1-methylcyclohexanecarboxamide]
Second: C[C@]1(C(N)=O)CC[C@@H](n2c(Nc3c(F)cc(Cl)cc3F)nc3cnc(N[C@@H]4CCC[C@H](O)C4)nc32)CC1 [Example 566, (1S,4s)-4-(8-(4-chloro-2,6-difluorophenylamino)-2-((1R,3S)-3-hydroxycyclohexylamino)-9H-purin-9-yl)-1-methylcyclohexanecarboxamide]
The IC50 of the first is higher: greater than 1000 nM for the first, 250 to 500 nM for the second.

C[C@]1(C(N)=O)CC[C@@H](n2c(Nc3c(F)cc(Cl)cc3Cl)nc3cnc(N[C@@H]4CCC[C@H](O)C4)nc32)CC1 [Example 564, (1S,4s)-4-(8-(2,4-dichloro-6-fluorophenylamino)-2-((1R,3S)-3-hydroxycyclohexylamino)-9H-purin-9-yl)-1-methylcyclohexanecarboxamide] and C[C@]1(C(N)=O)CC[C@@H](n2c(Nc3c(Cl)cc(Cl)cc3Cl)nc3cnc(N[C@@H]4CCC[C@H](O)C4)nc32)CC1 [Example 565, (1S,4s)-4-(2-((1R,3S)-3-hydroxycyclohexylamino)-8-(2,4,6-trichlorophenylamino)-9H-purin-9-yl)-1-methylcyclohexanecarboxamide] cannot be ordered by IC50: less than 250 nM for the first, less than 250 nM for the second.

First: C[C@]1(C(N)=O)CC[C@@H](n2c(Nc3c(Cl)cc(F)cc3Cl)nc3cnc(N[C@@H]4CCC[C@H](O)C4)nc32)CC1 [Example 567, (1S,4s)-4-(8-(2,6-dichloro-4-fluorophenylamino)-2-((1R,3S)-3-hydroxycyclohexylamino)-9H-purin-9-yl)-1-methylcyclohexanecarboxamide]
Second: C[C@]1(C(N)=O)CC[C@@H](n2c(Nc3c(F)cc(F)cc3Cl)nc3cnc(N[C@@H]4CCC[C@H](O)C4)nc32)CC1 [Example 576, (1S,4s)-4-(8-(2-chloro-4,6-difluorophenylamino)-2-((1R,3S)-3-hydroxycyclohexylamino)-9H-purin-9-yl)-1-methylcyclohexanecarboxamide]
The IC50 of the first is higher: 500 to 1000 nM for the first, 250 to 500 nM for the second.

First: C[C@]1(C(N)=O)CC[C@@H](n2c(Nc3c(F)cc(C#N)cc3Cl)nc3cnc(N[C@@H]4CCC[C@H](O)C4)nc32)CC1 [Example 568, (1S,4s)-4-(8-(2-chloro-4-cyano-6-fluorophenylamino)-2-((1R,3S)-3-hydroxycyclohexylamino)-9H-purin-9-yl)-1-methylcyclohexanecarboxamide]
Second: C[C@]1(C(N)=O)CC[C@@H](n2c(Nc3c(Cl)cc(C#N)cc3Cl)nc3cnc(N[C@@H]4CCC[C@H](O)C4)nc32)CC1 [Example 569, (1S,4s)-4-(8-(2,6-dichloro-4-cyanophenylamino)-2-((1R,3S)-3-hydroxycyclohexylamino)-9H-purin-9-yl)-1-methylcyclohexanecarboxamide]
The IC50 of the first is higher: 250 to 500 nM for the first, less than 250 nM for the second. The second is the more potent here.

First: NC(=O)[C@H]1CC[C@@H](n2c(Nc3c(Cl)cc(C(F)(F)F)cc3Cl)nc3cnc(NC4CC5(COC5)C4)nc32)CC1 [Example 570, (1s,4s)-4-(2-(2-oxaspiro[3.3]heptan-6-ylamino)-8-(2,6-dichloro-4-(trifluoromethyl)phenylamino)-9H-purin-9-yl)cyclohexanecarboxamide]
Second: N#Cc1cc(F)c(Nc2nc3cnc(NC4CC5(COC5)C4)nc3n2[C@H]2CC[C@@H](C(N)=O)CC2)c(Cl)c1 [Example 572, (1s,4s)-4-(2-(2-oxaspiro[3.3]heptan-6-ylamino)-8-(2-chloro-4-cyano-6-fluorophenylamino)-9H-purin-9-yl)cyclohexanecarboxamide]
The IC50 of the first is higher: greater than 1000 nM for the first, 500 to 1000 nM for the second. The second is the more potent here.

First: N#Cc1cc(F)c(Nc2nc3cnc(NC4CC5(COC5)C4)nc3n2[C@H]2CC[C@@H](C(N)=O)CC2)c(F)c1 [Example 573, (1s,4s)-4-(2-(2-oxaspiro[3.3]heptan-6-ylamino)-8-(4-cyano-2,6-difluorophenylamino)-9H-purin-9-yl)cyclohexanecarboxamide]
Second: C[C@]1(C(N)=O)CC[C@@H](n2c(Nc3c(F)cc(F)cc3F)nc3cnc(NC4CC(F)(F)C4)nc32)CC1 [Example 578, (1s,4s)-4-(2-(3,3-difluorocyclobutylamino)-8-(2,4,6-trifluorophenylamino)-9H-purin-9-yl)-1-methylcyclohexanecarboxamide]
The IC50 of the first is higher: greater than 1000 nM for the first, less than 250 nM for the second.

First: C[C@]1(C(N)=O)CC[C@@H](n2c(Nc3c(Cl)cc(C(F)(F)F)cc3Cl)nc3cnc(N[C@@H]4CCC[C@H](O)C4)nc32)CC1 [Example 577, (1S,4s)-4-(8-(2,6-dichloro-4-(trifluoromethyl)phenylamino)-2-((1R,3S)-3-hydroxycyclohexylamino)-9H-purin-9-yl)-1-methylcyclohexanecarboxamide]
Second: C[C@]1(C(N)=O)CC[C@@H](n2c(Nc3c(Cl)cc(Cl)cc3Cl)nc3cnc(NC4CC(F)(F)C4)nc32)CC1 [Example 580, (1s,4s)-4-(2-(3,3-difluorocyclobutylamino)-8-(2,4,6-trichlorophenylamino)-9H-purin-9-yl)-1-methylcyclohexanecarboxamide]
The IC50 of the first is higher: greater than 1000 nM for the first, 250 to 500 nM for the second.

C[C@]1(C(N)=O)CC[C@@H](n2c(Nc3c(F)cc(F)cc3Cl)nc3cnc(NC4CC(F)(F)C4)nc32)CC1 [Example 579, (1s,4s)-4-(8-(2-chloro-4,6-difluorophenylamino)-2-(3,3-difluorocyclobutylamino)-9H-purin-9-yl)-1-methylcyclohexanecarboxamide] and C[C@]1(C(N)=O)CC[C@@H](n2c(Nc3c(F)cc(Cl)cc3F)nc3cnc(NC4CC(F)(F)C4)nc32)CC1 [Example 581, (1s,4s)-4-(8-(4-chloro-2,6-difluorophenylamino)-2-(3,3-difluorocyclobutylamino)-9H-purin-9-yl)-1-methylcyclohexanecarboxamide] cannot be ordered by IC50: less than 250 nM for the first, less than 250 nM for the second.
